This assay concerns the target T1, recombinant IRAK-4 kinase (Homo sapiens, UniProt Q9NWZ3).
T1 construct: purchased Millipore, USA
T1 sequence (Q9NWZ3 1-460): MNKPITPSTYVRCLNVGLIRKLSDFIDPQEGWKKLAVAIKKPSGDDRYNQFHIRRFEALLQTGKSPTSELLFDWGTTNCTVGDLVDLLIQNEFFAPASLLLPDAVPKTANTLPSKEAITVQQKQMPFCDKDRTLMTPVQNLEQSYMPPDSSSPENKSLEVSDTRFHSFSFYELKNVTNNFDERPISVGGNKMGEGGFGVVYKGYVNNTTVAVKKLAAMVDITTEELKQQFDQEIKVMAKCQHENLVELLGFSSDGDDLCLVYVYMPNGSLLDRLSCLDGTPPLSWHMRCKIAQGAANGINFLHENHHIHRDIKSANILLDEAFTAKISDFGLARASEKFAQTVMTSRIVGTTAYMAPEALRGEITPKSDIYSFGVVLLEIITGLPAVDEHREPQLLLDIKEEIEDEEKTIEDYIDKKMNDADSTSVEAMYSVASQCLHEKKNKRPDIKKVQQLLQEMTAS
Description: IRAK-4 Biochemical Assay (TR-FRET, percent inhibition). Particulars: TR-FRET, 20 μM ATP, 100 nM Biotin Histone H3; for inhibition at 0.1 µM: read-out: % inhibition of IRAK-4 @0.1 μM, compound at 0.1 μM; for inhibition at 1 µM: read-out: % inhibition of IRAK-4 @ 1 μM, compound at 1 μM. The gist of the method: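 IRAK-4 pre-incubated with compound 30 min at room temperature in Tris-HCl pH 7.5 buffer with MgCl2, MnCl2 and DTT, then reacted 30 min with 100 nM biotin-histone H3 and 20 μM ATP. EDTA stop with Eu-anti-phospho-H3 (Ser10) and APC-streptavidin. Percent inhibition derived from the 665/615 nm emission ratio at 340 nm excitation.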
On the technique in general: TR-FRET usually uses a lanthanide donor and a delayed reading to cut background.

Where a name gives a salt, the structure may show the parent alone.

The values below come from patent publication US20180208605A1, “Substituted Aza Compounds as IRAK-4 Inhibitors” (AURIGENE DISCOVERY TECHNOLOGIES LIMITED, priority 2015, published 2018).

Usually inhibition stands for the change of the read-out against control, counted positive when it falls. As to `CC(N)C(=O)O[C@H]1CCN(c2cccc(C(=O)Nc3cc4sc(N5CCOCC5)nc4nc3N3CCCCC3)n2)C1` (stereo partly drawn) [Example 57, (S)-1-(6-((2-morpholino-5-(piperidin-1-yl)thiazolo[4,5-b]pyridin-6-yl)carbamoyl)pyridin-2-yl)pyrrolidin-3-ylalaninate], the inhibition at 0.1 µM was 97% and the inhibition at 1 µM turned out to be 98%.

In the case of `O=C(Nc1cc2oc(N3CCOCC3)nc2nc1N1CC[C@@H](O)C1)c1cnn2cccnc12` [Example 25, (R)—N-(5-(3-hydroxypyrrolidin-1-yl)-2-morpholinooxazolo[4,5-b]pyridin-6-yl)pyrazolo[1,5-a]pyrimidine-3-carboxamide], the inhibition at 0.1 µM is 55% and the inhibition at 1 µM was 96%.

As to `Cc1nc2nc(N3CCOCC3)sc2cc1NC(=O)c1cccc(N2CCC(O)C2)n1` (stereo not drawn) [Example 43, 6-(3-hydroxypyrrolidin-1-yl)-N-(5-methyl-2-morpholinothiazolo[4,5-b]pyridin-6-yl)picolinamide], the inhibition at 0.1 µM stood at 50% and the inhibition at 1 µM was determined as 92%.

Take `NCC(=O)N[C@H]1CCN(c2cccc(C(=O)Nc3cc4sc(N5CCOCC5)nc4nc3N3CCCCC3)n2)C1` [Example 27, (S)-6-(3-(2-aminoacetamido)pyrrolidin-1-yl)-N-(2-morpholino-5-(piperidin-1-yl)thiazolo[4,5-b]pyridin-6-yl)picolinamide]: the inhibition at 0.1 µM came to 95% and the inhibition at 1 µM is 97%.

`N[C@H]1CCN(c2cccc(C(=O)Nc3cc4sc(N5CCOCC5)nc4nc3N3CCCCC3)n2)C1` [Example 26, (S)-6-(3-aminopyrrolidin-1-yl)-N-(2-morpholino-5-(piperidin-1-yl)thiazolo[4,5-b]pyridin-6-yl)picolinamide]: the inhibition at 0.1 µM was 87% and the inhibition at 1 µM came out at 92%.

As to `C[C@H](O)Cn1cc(-c2cccc(C(=O)Nc3cc4oc(N5CCOCC5)nc4nc3N3CC[C@@H](O)C3)n2)cn1` [Example 94, 6-(1-((S)-2-hydroxypropyl)-1H-pyrazol-4-yl)-N-(5-((R)-3-hydroxypyrrolidin-1-yl)-2-morpholinooxazolo[4,5-b]pyridin-6-yl)picolinamide], the inhibition at 0.1 µM was 12% and the inhibition at 1 µM worked out at 60%.

Take `O=C(Nc1cc2sc(N3CCOCC3)nc2nc1N1CCOCC1)c1cccc(N2CCC(O)C2)n1` (stereo not drawn) [Example 76, N-(2,5-dimorpholinothiazolo[4,5-b]pyridin-6-yl)-6-(3-hydroxypyrrolidin-1-yl)picolinamide]: the inhibition at 0.1 µM amounted to 92% and the inhibition at 1 µM was 97%.

With `Cc1cc(-c2nc(C(=O)Nc3cc4oc(N5CCOCC5)nc4nc3OC3CCC(N4CCOCC4)CC3)co2)ccn1` (stereo not drawn) [Example 16, 2-(2-methylpyridin-4-yl)-N-(2-morpholino-5-(((1r,4r)-4-morpholinocyclohexyl)oxy)oxazolo[4,5-b]pyridin-6-yl)oxazole-4-carboxamide hydrochloride], the inhibition at 0.1 µM worked out at 94% and the inhibition at 1 µM was found to be 99%.

Turning to `Cc1cc(-c2nc(C(=O)Nc3cc4oc(N5CCOCC5)nc4nc3N3CC(C)(C)CC3=O)co2)ccn1` [Example 86, N-(5-(4,4-dimethyl-2-oxopyrrolidin-1-yl)-2-morpholinooxazolo[4,5-b]pyridin-6-yl)-2-(2-methylpyridin-4-yl)oxazole-4-carboxamide], the inhibition at 0.1 µM worked out at 65% and the inhibition at 1 µM was 57%.

As to `Nc1ccc(-c2cccc(C(=O)Nc3cc4sc(N5CCOCC5)nc4nc3C3CC3)n2)cn1` [Example 51, 6′-amino-N-(5-cyclopropyl-2-morpholinothiazolo[4,5-b]pyridin-6-yl)-[2,3′-bipyridine]-6-carboxamide], the inhibition at 0.1 µM is 98%.

Consider `O=C(Nc1cc2sc(N3CCOCC3)nc2nc1N1CCCCC1)c1cccc(NC2CCC(CO)CC2)n1` (stereo not drawn) [Example 46, 6-((4-(hydroxymethyl)cyclohexyl)amino)-N-(2-morpholino-5-(piperidin-1-yl)thiazolo[4,5-b]pyridin-6-yl)picolinamide], for which the inhibition at 0.1 µM was found to be 75% and the inhibition at 1 µM is 94%.
